The values below come from patent publication US12409206B2, “Use of cyclosporine analogues for treating fibrosis” (Hepion Pharmaceuticals, Inc., priority 2020, dated 2025).

Each structure is given as a SMILES string.

The subject of experiment [1] is Human cardiac fibroblasts. Nature of the experiment: Procollagen and fibronectin ELISA of spent medium, cardiac fibroblast culture. Format: cell-based. Conditions: 6 days, both in the absence or presence of 0.4 ng/ml TGFβ. Here is the method:
Human cardiac fibroblasts (Lonza Bioscience, Cat. #CC-2903) were cultured in 96-well plates. Treatments were applied in triplicate wells (applied 100 ul treatments per well) for 6 days. Cells were near confluence at the start of treatments. […] Spent culture medium collected at the end of treatments was assayed for procollagen and fibronectin by enzyme-linked immunosorbent assays (ELISA) (Procollagen ELISA antibody pair (ab216064) and fibronectin ELISA antibody pair (ab222262) from Abcam). Procollagen and fibronectin were not detected in medium not applied to cells. Procollagen and fibronectin levels in the medium are represented by means±SD (bars) from 3 replicate wells (open circles).

Experiment [2] concerns Human Lung Fibroblasts from a Patient with Idiopathic Pulmonary Fibrosis (IPF). Nature of the experiment: Procollagen and fibronectin ELISA of spent medium, IPF lung fibroblast culture. It counts as cell-based. Conditions: 6 days, both in the absence or presence of 0.4 ng/ml TGFβ. As for the experimental part:
Human Lung Fibroblasts from a Patient with Idiopathic Pulmonary Fibrosis (IPF) (Lonza Bioscience, Cat. #CC-7231) were cultured in 96-well plates. Treatments were applied in triplicate wells (applied 100 ul treatments per well) for 6 days. Cells were near confluence at the start of treatments. […] Spent culture medium collected at the end of the treatments was assayed for procollagen and fibronectin by enzyme-linked immunosorbent assays (ELISA) (Procollagen ELISA antibody pair (ab216064) and fibronectin ELISA antibody pair (ab222262) from Abcam). Procollagen and fibronectin were not detected in medium not applied to cells. Procollagen and fibronectin levels in the medium are represented by means±SD (bars) from 3 replicate wells (open circles).
(In an ELISA, binding on a coated surface is turned into a signal by an enzyme label.)

Experiment [3] relates to human precision cut liver slices (PCLS). As to the kind of experiment: PCLS Sirius red tissue fibrosis, Stimulation Protocol (TGFβ+PDGF-BB). Format: cell-based. The conditions noted are these: compared with other NASH drug candidates. Here is the method: PCLS were obtained from 5 human donors who underwent resection of liver cancer. Replicate slices were collected from healthy margins of the resections and cultured for 4 or 6 days depending on the experimental protocol. In the Nonstimulation Protocol slices were cultured for 6 days and treated for the entire period with DMSO vehicle or 5 μM CRV431. In the Stimulation Protocol slices were rested for 1 day and then administered the cytokines, TGFβ and PDGF-BB, for 3 days to stimulate inflammation and fibrosis. […]
Four types of evaluations were conducted on the PCLS: (a) secretion of inflammation and fibrosis biomarkers into the culture medium, (b) histological staining and quantitation of Sirius red as a measure of tissue fibrosis, (c) gene expression of inflammation and fibrosis biomarkers by RT-PCR, and (d) RNA sequencing (RNA-Seq) of the complete transcriptome. […] ELISAs were used to quantify secretion of monocyte chemoattractant protein (MCP-1), interleukin-6 (IL-6), tissue inhibitor of metalloproteinase-1 (TIMP1), hyaluronic acid, fibronectin, and collagen 1α1. For each donor the mean level of biomarker secretion in each treatment group was expressed as a percentage change relative to DMSO vehicle, the percentages averaged for all donors, and finally the mean daily percentage change calculated from all days of evaluation. […]

The subject of experiment [4] is mouse unilateral ureteral obstruction (UUO) model of kidney fibrosis. Nature of the experiment: Mouse unilateral ureteral obstruction (UUO) model of kidney fibrosis, Sirius red. It counts as in vivo, C57BL/6 mice. Conditions: 50 mg/kg/day daily oral gavage for 13 days; vs vehicle; per-section and per-animal; one-way ANOVA with Tukey. As for the experimental part:
This example describes a study conducted in the mouse unilateral ureteral obstruction (UUO) model of kidney fibrosis. Seven-week-old female C57BL/6 mice were used in this study (n=8 mice per group). Sham group mice received no UUO. The remaining mice underwent complete surgical ligation of the left ureter. Vehicle and CRV431 at 50 mg/kg/day were administered by daily oral gavage for 13 days starting on the day of surgery. Mice were sacrificed on Day 14, and left kidneys were processed histologically and stained for fibrotic collagen with Sirius red. The percentage of each histological section with Sirius red staining was measured morphometrically in 5 sections from each kidney. Results are shown in FIG. 7A (showing Sirius red in individual tissue sections) and 7B (showing Sirius red in individual mice (5 tissue sections per mouse)).

Experiment [5] deals with human precision cut liver slices (PCLS). As to the kind of experiment: PCLS gene expression by RT-PCR. It counts as cell-based. As for the experimental part: PCLS were obtained from 5 human donors who underwent resection of liver cancer. Replicate slices were collected from healthy margins of the resections and cultured for 4 or 6 days depending on the experimental protocol. In the Nonstimulation Protocol slices were cultured for 6 days and treated for the entire period with DMSO vehicle or 5 μM CRV431. In the Stimulation Protocol slices were rested for 1 day and then administered the cytokines, TGFβ and PDGF-BB, for 3 days to stimulate inflammation and fibrosis. DMSO vehicle, CRV431 (1 and 5 μM), Alk5i (10 μM), obeticholic acid (5 μM), elafibranor (5 μM), resmetirom ([…]), and Aramchol (5 μM) were administered individually as drug treatments in the Stimulation Protocol concurrent with TGFβ+PDGF-BB. Culture medium treatments were replaced daily.
Four types of evaluations were conducted on the PCLS: (a) secretion of inflammation and fibrosis biomarkers into the culture medium, (b) histological staining and quantitation of Sirius red as a measure of tissue fibrosis, (c) gene expression of inflammation and fibrosis biomarkers by RT-PCR, and (d) RNA sequencing (RNA-Seq) of the complete transcriptome. Each of the four types of evaluation is described below: • (a) Biomarker secretion. Spent culture medium was collected daily from duplicate slices for each treatment. ELISAs were used to quantify secretion of monocyte chemoattractant protein (MCP-1), interleukin-6 (IL-6), tissue inhibitor of metalloproteinase-1 (TIMP1), hyaluronic acid, fibronectin, and collagen 1α1. For each donor the mean level of biomarker secretion in each treatment group was expressed as a percentage change relative to DMSO vehicle, the percentages averaged for all donors, and finally the mean daily percentage change calculated from all days of evaluation. […] Sirius red was quantified morphometrically in the histological sections as the percentage area with Sirius red staining in 10 sections from each treatment. In the Nonstimulation Protocol the quantity of Sirius red staining was expressed relative to the vehicle group. In the Stimulation Protocol the quantity of Sirius red staining was expressed relative to nonstimulated PCLS (0%) and TGFβ+PDGF-BB-stimulated+vehicle PCLS (100%). […] RNA was isolated from duplicate liver slices per treatment at the end of the experiments and evaluated by RT-PCR for 5 markers of inflammation and fibrosis: MCP-1, IL-6, TIMP1, αSMA, and collagen 1α1. β actin was used as a reference gene to calculate relative levels of each target gene RNA. […] RNA sequencing of the complete transcriptome (30 million reads per sample) was conducted on vehicle and 5 μM CRV431 treatment groups from 3 donors both from the Nonstimulation and Stimulation Protocols. […]

The test system of a further experiment is liver. Conditions: a number of in vivo models; cited from earlier work.
A further experiment relates to hepatitis B. The conditions noted are these: preclinical studies; cited from earlier work.
Experiment [6] has as its system Human renal mesangial cells. As to the kind of experiment: Procollagen and fibronectin ELISA of spent medium, renal mesangial cell culture. Format: cell-based. The conditions noted are these: medium from Day 2-4 of treatment, both in the absence or presence of 0.4 ng/ml TGFβ. As for the experimental part: Human renal mesangial cells (ScienCell, Cat. #4200 (SC)) were cultured in 96-well plates. Treatments were applied in triplicate wells (applied 100 ul treatments per well) for 2 days, then re-applied for an additional 2 days. Cells were near confluence at the start of treatments. […] Spent culture medium collected from Day 2-4 of treatment was assayed for procollagen and fibronectin by enzyme-linked immunosorbent assays (ELISA) (Procollagen ELISA antibody pair (ab216064) and fibronectin ELISA antibody pair (ab222262) from Abcam). Procollagen and fibronectin were not detected in medium not applied to cells. Procollagen and fibronectin levels in the medium are represented by means±SD (bars) from 3 replicate wells (open circles).

For `CC[C@@H]1NC(=O)[C@H]([C@H](O)[C@H](C)CCCCCCNC(C)=O)N(C)C(=O)[C@H](C(C)C)N(C)C(=O)[C@H](CC(C)C)N(C)C(=O)[C@H](CC(C)C)N(C)C(=O)[C@@H](C)NC(=O)[C@H](C)NC(=O)[C@H](CC(C)C)N(C)C(=O)[C@H](C(C)C)NC(=O)[C@H](CC(C)C)N(C)C(=O)[C@@H](C)N(C)C1=O` [CRV431], the “abundance of fibronectin in the medium” value in experiment [1], in experiment [2] and in experiment [6] was “dose-dependently decreased” each time. For the same compound, the “abundance of procollagen in the medium” value in experiment [1], in experiment [2] and in experiment [6] was “dose-dependently decreased” throughout. Moreover, the “preventing TGFβ+PDGF-BB-induced tissue fibrosis” value in experiment [3] was “most effective of five NASH drug candidates”. In addition, in experiment [4], the “Sirius red staining (fibrotic collagen) of left kidney” value was “statistically significant decrease”. Besides, in experiment [5] (CRV431 applied at 5 μM, markers MCP-1, IL-6, TIMP1, αSMA, collagen 1α1), the “gene expression of all markers” value was “decreased”. Moreover, the “RNA levels of collagen1α1, αSMA, TIMP1, IL-6, and MCP-1” value in experiment [5] (qRT-PCR) was “reductions in RNA levels”. For the same compound, the “anti-fibrotic activity in the liver” value in the experiment on liver was “anti-fibrotic activity”. Besides, the anti-viral activity result in the experiment with hepatitis B is reported as “shows anti-viral activity”.
